These results are taken from patent publication US6821774B1, “Compositions and methods for increasing cholesterol efflux and raising HDL using ATP binding cassette transporter ABC1” (CV Therapeutics, Inc., priority 1999, dated 2004).

Series [1] concerns ABC1 mRNA. Put plainly: ABC1 mRNA expression by RT-PCR in normal fibroblasts. It counts as cell-based, human. Here is the method:
(§1) To determine whether ABC1 plays a rate-limiting role in cellular sterol efflux, the synthesis of ABC1 was measured under various cellular conditions related to cholesterol efflux processes. Specifically, normal fibroblasts and TD fibroblasts were individually exposed to conditions of excess cAMP, cholesterol, or Apo A-I. Cell cultures of normal skin fibroblasts and TD1 and TD2 fibroblasts were prepared as described in Example 1. The level of ABC1 mRNA was measured by RT-PCR. Cell cultures: Immortalized cell cultures of normal skin fibroblasts and TD1 and TD2 fibroblasts were prepared as described in Example 1. Cells were grown to subconfluence in DMEM/10% FBS before replacement with DMEM/BSA and the indicated additive for 24 or 48 hours. RNA was prepared as described in Example 2. RT-PCR: Quantitative PCR was carried out using the GeneAmp 5700 Sequence Detection System (Perkin-Elmer Applied Biosystems, Foster City, Calif.). Briefly, 500 ng of DNase-treated mRNA was reverse transcribed using random hexamer primers at 2.5 μM. Approximately 5% of this reaction was amplified by PCR using the SYBR green core kit (PE Applied Biosystems, Foster City, Calif.; Cat. #4304886) and human ABC1 primers […] […] The mRNA in each sample was quantitated by detecting the increase in fluorescence caused by SYBR green binding to the double-stranded amplification product generated during each PCR cycle. […]

For another series, the system named is ABC1 protein. Put plainly: Cell-surface labeling and immunoprecipitation of ABC1 protein in normal and TD1 fibroblasts. It counts as cell-based, human. Particulars: serum deprivation and cholesterol-loading (30 μg/ml, 48 hours), normal and TD1 cells.
The subject of series [2] is ABC1 mRNA. The series can be described thus: Apo A-I-mediated cholesterol efflux from normal skin fibroblasts loaded with antisense oligonucleotide. It counts as cell-based, human. The conditions noted are these: 30 μM oligonucleotide; apo A-I-mediated efflux after 12 hours. Here is the method: Normal skin fibroblasts were labeled with [^3H]cholesterol as described in Example 1. The cells were then loaded with oligonucleotide by scraping in the presence of either 30 μM control Morpholino oligonucleotide (5′-[…]-3′ corresponding to the antisense complement of a β-globin thalassemic mRNA; SEQ ID NO: 52) or 30 μM ABC1 antisense Morpholino oligonucleotide (5′-[…]-3′; SEQ ID NO: 53) and reseeding on new dishes. Control cells were mock-loaded after [^3H]cholesterol-labeling by scraping and reseeding in the absence of oligonucleotide. […] The results are shown in FIG. 6 as the mean±SEM of three separate experiments, normalized to the value for apo A-I-specific efflux in the absence of oligonucleotide in each experiment.

Series [3] deals with RAW 264.7 cells. Put plainly: Apo A-I-mediated cholesterol efflux assay in cholesterol-loaded RAW 264.7 macrophage cells. Particulars: apo A-I (20 μg/ml) and rolipram 50 μM. It counts as cell-based, mouse.
Series [4] deals with normal fibroblasts. The series can be described thus: Apo A-I-mediated cholesterol efflux from normal fibroblasts in the presence of ABC1 transport inhibitors. The format is cell-based, human. Particulars: 6 hours; 5 μg/ml apo A-I; 0, 0.2 mM or 0.4 mM inhibitor. How it is done: To test whether inhibition of ABC1 could affect the process of apolipoprotein-mediated cholesterol efflux, two compounds reported to be ABC1 inhibitors were tested in assays which monitor apolipoprotein mediated cholesterol efflux. […] The apolipoprotein-mediated cholesterol efflux assays were performed as described in Example 1 with the noted changes. Cholesterol-loaded and [^3H]cholesterol-labeled normal fibroblasts (n=3) were incubated for 6 hours with or without 5 μg/ml apo A-1 and either 0, 0.2 mM, or 0.4 mM DIDS. In addition, cholesterol-loaded and [^3H]cholesterol-labeled normal fibroblasts (n=3) were incubated for 6 hours with or without 5 μg/ml apo A-I and either 0, 0.2 mM, or 0.4 mM BSP. […] The results are shown in FIG. 5 as the mean±SD (n=3) of efflux in the presence of apo A-I after subtraction of values for apo A-I-free medium. […] The results of these tests mimic the efflux defect in fibroblasts derived from patients with TD, described in Example 1.

In the next series the target is ABC1 (Mus musculus, UniProt P41233). The conditions noted are these: Becq et al. 1997; Hamon et al. 1997; cited from earlier work.
Chain of ABC1 (P41233 whole entry): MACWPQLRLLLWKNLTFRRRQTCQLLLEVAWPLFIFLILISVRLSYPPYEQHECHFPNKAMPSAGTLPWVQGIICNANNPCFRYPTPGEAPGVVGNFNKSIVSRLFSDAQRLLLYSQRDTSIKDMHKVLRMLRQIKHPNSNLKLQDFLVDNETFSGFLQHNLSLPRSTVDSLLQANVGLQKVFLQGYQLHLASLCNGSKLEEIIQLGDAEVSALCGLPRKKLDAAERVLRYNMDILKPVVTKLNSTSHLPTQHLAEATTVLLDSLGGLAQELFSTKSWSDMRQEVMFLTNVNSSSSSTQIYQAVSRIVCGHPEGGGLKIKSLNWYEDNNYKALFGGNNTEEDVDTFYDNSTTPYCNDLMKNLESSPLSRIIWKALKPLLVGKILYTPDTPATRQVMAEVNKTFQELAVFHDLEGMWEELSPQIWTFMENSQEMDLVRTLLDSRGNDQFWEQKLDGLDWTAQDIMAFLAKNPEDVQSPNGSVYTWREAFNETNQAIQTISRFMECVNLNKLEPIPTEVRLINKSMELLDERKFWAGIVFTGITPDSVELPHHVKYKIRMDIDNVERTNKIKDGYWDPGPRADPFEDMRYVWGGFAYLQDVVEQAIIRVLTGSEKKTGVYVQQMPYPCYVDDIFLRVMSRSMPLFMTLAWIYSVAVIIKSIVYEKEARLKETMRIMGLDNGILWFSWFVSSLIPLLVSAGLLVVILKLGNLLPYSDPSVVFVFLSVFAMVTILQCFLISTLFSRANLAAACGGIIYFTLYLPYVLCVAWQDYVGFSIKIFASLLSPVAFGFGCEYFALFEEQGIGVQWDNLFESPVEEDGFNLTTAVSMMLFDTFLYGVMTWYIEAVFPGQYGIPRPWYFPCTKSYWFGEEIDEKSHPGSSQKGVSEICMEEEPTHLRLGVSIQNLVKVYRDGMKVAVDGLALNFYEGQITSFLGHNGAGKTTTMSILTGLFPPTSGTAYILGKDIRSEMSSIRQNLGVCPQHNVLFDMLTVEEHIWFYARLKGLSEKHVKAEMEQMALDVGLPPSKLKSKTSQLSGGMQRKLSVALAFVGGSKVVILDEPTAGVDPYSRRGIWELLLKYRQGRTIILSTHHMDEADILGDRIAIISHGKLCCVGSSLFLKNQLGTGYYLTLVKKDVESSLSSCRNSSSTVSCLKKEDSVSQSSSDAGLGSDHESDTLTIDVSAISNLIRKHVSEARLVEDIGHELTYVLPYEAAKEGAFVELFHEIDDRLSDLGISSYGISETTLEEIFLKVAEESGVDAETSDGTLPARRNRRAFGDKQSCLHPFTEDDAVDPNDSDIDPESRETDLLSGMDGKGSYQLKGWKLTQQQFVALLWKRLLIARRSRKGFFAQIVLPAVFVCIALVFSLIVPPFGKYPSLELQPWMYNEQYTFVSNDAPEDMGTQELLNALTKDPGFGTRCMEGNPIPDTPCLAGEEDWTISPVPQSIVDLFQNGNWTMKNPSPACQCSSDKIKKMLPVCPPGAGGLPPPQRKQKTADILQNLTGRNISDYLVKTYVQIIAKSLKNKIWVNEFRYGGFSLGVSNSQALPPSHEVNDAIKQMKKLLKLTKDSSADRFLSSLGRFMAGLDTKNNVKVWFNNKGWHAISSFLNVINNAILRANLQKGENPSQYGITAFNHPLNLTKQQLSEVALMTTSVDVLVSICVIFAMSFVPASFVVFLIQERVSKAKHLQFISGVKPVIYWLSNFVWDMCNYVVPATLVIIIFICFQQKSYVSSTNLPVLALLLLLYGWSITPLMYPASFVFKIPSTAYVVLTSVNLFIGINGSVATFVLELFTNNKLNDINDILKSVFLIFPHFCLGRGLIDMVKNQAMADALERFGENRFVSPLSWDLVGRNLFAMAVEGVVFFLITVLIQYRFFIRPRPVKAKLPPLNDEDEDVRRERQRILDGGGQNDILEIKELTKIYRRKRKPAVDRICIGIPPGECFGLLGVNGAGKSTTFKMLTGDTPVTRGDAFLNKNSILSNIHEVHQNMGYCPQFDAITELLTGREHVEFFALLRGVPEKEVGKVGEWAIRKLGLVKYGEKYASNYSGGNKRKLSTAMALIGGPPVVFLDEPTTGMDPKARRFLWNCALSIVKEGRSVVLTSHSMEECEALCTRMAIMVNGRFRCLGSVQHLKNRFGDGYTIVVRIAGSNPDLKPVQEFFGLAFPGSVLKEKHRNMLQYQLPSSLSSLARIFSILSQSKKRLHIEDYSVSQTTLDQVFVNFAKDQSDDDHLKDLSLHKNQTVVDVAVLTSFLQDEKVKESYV
Series [5] deals with normal fibroblasts. Put plainly: Cholesterol efflux from cholesterol-laden normal fibroblasts. The conditions noted are these: albumin plus apo A-I 10 μg/ml; up to 48 hours. The format is cell-based, human. Here is the method: (§2) Cell Cultures: Human fibroblasts were obtained from skin explants from two normal subjects (NL1) and three unrelated patients with Tangier disease ([…]). TD1 cells were obtained from a person with extremely low plasma HDL cholesterol and apo A-I levels and clinical symptoms typical of Tangier disease. […] TD3 cells were obtained from a person with Tangier disease who presented with orange tonsil remnants, asymmetrical motor neuropathy, plasma HDL cholesterol of 5 mg/dL, and LDL cholesterol of 16 mg/dL (Lawn et at., J. Clin. Invest., 104, R25-R31 (1999)). The normal cells and TD subject cells were immortalized as described in Oram et al., J. Lipid Res., 40: 1769-1781 (1999). Briefly, the cells were transfected with amphotropic retroviruses containing vectors with inserts of human papillomavirus 16 oncogenes E6 and E7 and a neomycin resistance selectable marker. Control cells were infected with vector alone (mock-infected). Pooled cell populations were selected in the presence of G418 for two passages, after which G418 was excluded from the medium. Fibroblasts were used between the fifth and sixteenth passage (primary) or sixth and fourteenth passage (immortalized). The immortalized normal and TD cells were seeded into 16-mm wells or 35-mm dishes and grown to confluence in Dulbecco's modified Eagle's medium (DMEM) plus 10% fetal bovine serum (FBS) before experimental use. […]

The subject of series [6] is RAW 264.7 cells. The series can be described thus: Apo A-I-mediated cholesterol efflux assay in cholesterol-loaded RAW 264.7 macrophage cells. The format is cell-based, mouse. How it is done:
To determine whether ligands for nuclear receptors affect the process of apolipoprotein-mediated cholesterol efflux, various ligands were tested using the apo A-I-mediated cholesterol efflux assay described in Example 12. The nuclear receptor superfamily includes several members, such as the liver receptor LXR, the retinoid receptor RXR, and the peroxisome proliferator-activated receptor PPAR, which have been implicated in lipid metabolism (Russell. D. W., Cell, 97:539-542 (1999); Spiegelman, B. W., Cell, 93:153-155 (1998); Janowski et al., Nature, 383:728-731 (1996)). […] Using the above-described assay, 9 cis-retinoic acid (RXR ligand), oxysterol (LXR ligand), and fenfibrate (PPAR ligand) was tested to determine the effect on cholesterol efflux.
To determine whether eicosanoids affect the process of apolipoprotein-mediated cholesterol efflux, PGE1 and PG12 were tested using the apo A-I-mediated cholesterol efflux assay described in Example 12.

Series [7] concerns ABC1 mRNA. The series can be described thus: ABC1 mRNA expression by RT-PCR in Tangier disease (TD1, TD2) fibroblasts. The format is cell-based, human. Particulars: 10 μg/ml apo A-I. How it is done:
as §1

A further series has as its system TD fibroblasts. The series can be described thus: Cholesterol efflux from cholesterol-laden Tangier disease fibroblasts. The format is cell-based, human. The conditions noted are these: albumin plus apo A-I 10 μg/ml. Here is the method:
as §2

Experimental for ABC1 protein: Cell-surface labeling and immunoprecipitation was used to determine whether increased expression of ABC1 protein in the plasma membrane is correlated with an increase in cholesterol efflux (FIG. 10). The relative amount of ABC1 on the cell surface was determined by cross-linking surface proteins on intact cells with the membrane-impermeable agent sulfo-NHS-biotin, followed by the steps of membrane solubilization, immunoprecipitation with ABC1 antibody, SDS-PAGE, and detection with streptavidin.
Both normal and TD1 cells were cultured under control conditions and conditions known to increase apolipoprotein-mediated cholesterol efflux (Oram, et al., J. Lip. Res., 40: 1769-1781 (1999)). […] Cholesterol-loaded cells were grown to confluence in DMEM/10% FBS and then incubated in DMEM/BSA for 48 hours with 30 μg/ml cholesterol plus 18 hours with no additives (cholesterol). […]
Detection of ABC1 Protein: The eluted biotinylated proteins were subjected to SDS-PAGE (6% gel; 150V, 5 hours) and transferred to nitrocellulose membrane (200 mA, 18 hours). The nitrocellulose was probed with streptavidin-horse radish peroxidase (Amersham Pharmacia, Piscataway, N.J.; Cat. #RPN 1231) diluted 300-fold and detected by enhanced chemiluminescence labeling (ECL) according to vendor's protocol (Amersham Pharmacia, Piscataway, N.J.). […]

On to `CC(C)CCC[C@@H](C)[C@H]1CC[C@H]2[C@@H]3CC=C4C[C@@H](O)CC[C@]4(C)[C@H]3CC[C@]12C` [cholesterol], for which, in the series on ABC1 mRNA [1] (30 μg/ml free cholesterol, 48 hours, serum-free medium, normal fibroblasts), the “increase in ABC1 mRNA” value is reported as “approximately 17 fold”. For the same compound, the “cell-surface expression of ABC1” value in the series on ABC1 protein is given as “markedly increased”.
On to “ABC1 antisense Morpholino oligonucleotide: 5′-CATGTTGTTCATAGGGTGGGTAGCTC-3′; SEQ ID NO: 53 (all phosphorodiamidate morpholino (PMO))”, for which the “reduction in cholesterol efflux compared with control (β-globin) antisense oligonucleotide” value in the series on ABC1 mRNA [2] is on record as 50%.
For the compound `COc1ccc(C2CNC(=O)C2)cc1OC1CCCC1` (stereo not shown) [rolipram], the “cholesterol efflux (percentage of total radiolabeled cholesterol appearing in the medium)” value with RAW 264.7 cells [3] came out at 17%.
Turning to `O=C1OC(c2ccc(O)c(S(=O)(=O)O)c2)(c2ccc(O)c(S(=O)(=O)O)c2)c2c(Br)c(Br)c(Br)c(Br)c21` [BSP, sulphobromophthaleine], the “apo A-I-mediated efflux of tritiated cholesterol” value with normal fibroblasts [4] is on record as “inhibited”. Moreover, the “anion transport activities of ABC1” value at ABC1 is on record as “inhibit anion transport activities of ABC1 in a dose-dependent fashion”.
Regarding “apo A-I: apolipoprotein cholesterol acceptor (Biodesign International)”, the “change in ABC1 mRNA expression” value in the series on ABC1 mRNA [1] (cholesterol-loaded normal fibroblasts then 10 μg/ml apo A-I) is “marked decrease”. The “efflux of [3H]-cholesterol” value in the series with normal fibroblasts [5] is listed as “promoted the efflux”; with TD fibroblasts, “little or no effect”. Moreover, in the series on RAW 264.7 cells [6] (apo A-I only (20 μg/ml), control cells without apo A-I 3%), the “cholesterol efflux (percentage of total radiolabeled cholesterol appearing in the medium)” value is listed as 5%. The compound further registered a cholesterol efflux counts with RAW 264.7 cells [6] (control cells (apo A-I only)) of 1890 c.p.m. Moreover, the “change in ABC1 expression” value is “did not alter ABC1 expression” in the series with ABC1 mRNA [7] (cholesterol-loaded TD1 cells) and “slightly increased ABC1 expression” with ABC1 mRNA [7] (cholesterol-loaded TD2 cells).
